Assay results: patent US4547496A, “Antiulcer [1] benzepino[3,4-b]pyridine and compositions” (Kyowa Hakko Kogyo Co., Ltd., priority 1983, dated 1985)

Tests used:
Male Donryu-strain rats = test: Test for antiulcer activity (restraint and water immersion stress ulcer, lesion index of glandular stomach); type: in vivo; conditions: Rattus norvegicus, water immersion at 23±1° C. for 7 hours, read-out: Ulcer-inhibition Rate; for inhibition in vivo at 30 mg/kg: po: 30 mg/kg; for inhibition in vivo at 100 mg/kg: po: 100 mg/kg
Description: Test for antiulcer activity
Male Donryu-strain rats weighing 190 to 210 g were starved for 17 hours prior to the test.
Immediately, after an oral administration of the present compounds (30 mg/kg or 100 mg/kg), the rats were immobilized in the stress cage devised by Takagi et al. [Jap. J. Pharmacol., 18, 9 (1968)]. The cage was then immersed vertically in a water bath at 23±1° C. for 7 hours to the height of xiphoid process.
Each rat was then killed with carbon dioxide gas and its stomach was removed. The lengths of the lesions developed on the glandular stomach were summed to give a lesion index for each rat.
Four or five rats were used for each group. The test compounds were dissolved in saline or dissolved or suspended in saline with a suitable amount of polyethylene glycol-400 added or not added. The ulcer-inhibitionrate of each compound was calculated from the following formula by comparing the lesion index of the test group with that of the control group [administered with only the solvent (saline with polyethylene glycol-400 added or not added)]. [formula]

male dd-strain mice = test: Test for acute toxicity (minimum lethal dose, 7-day mortality); type: in vivo; conditions: mortality observed for 7 days; for Acute MLD ip: intraperitoneal
Description: Groups of 5 male dd-strain mice weighing 19 to 21 g were used. The present compounds were administered either orally (0.3 mg/g) or intraperitoneally (0.1 mg/g).
The MLD (minimum lethal dose) was determined by observing the mortality for 7 days after the administration.

CC(C)N(CCNC1c2ccccc2OCc2ncccc21)C(C)C (stereo not drawn) [Compound 24, 5-[2-(Diisopropylamino)ethyl]amino-5,11-dihydro[1]benzoxepino[3,4-b]pyridine]
inhibition in vivo at 30 mg/kg (Male Donryu-strain rats): 88%
Acute MLD ip (male dd-strain mice): > 100 mg/kg
Acute MLD po (male dd-strain mice): > 300 mg/kg

CC(C)N(CC(=O)NC1c2ccccc2OCc2ncccc21)C(C)C (stereo not drawn) [Compound 27, 5,11-Dihydro-5-[(N,N--diisopropylamino)acetyl]amino[1]benzoxepino[3,4-b]pyridine]
inhibition in vivo at 100 mg/kg (Male Donryu-strain rats): 79%
Acute MLD ip (male dd-strain mice): > 100 mg/kg
Acute MLD po (male dd-strain mice): > 300 mg/kg

c1ccc2c(c1)OCc1ncccc1C2NCCN1CCCC1 (stereo not drawn) [Compound 13, 5-[2-(1-Pyrrolidinyl)ethyl]amino-5,11-dihydro[1]benzoxepino[3,4-b]pyridine]
inhibition in vivo at 30 mg/kg (Male Donryu-strain rats): 72%
Acute MLD ip (male dd-strain mice): > 100 mg/kg
Acute MLD po (male dd-strain mice): > 300 mg/kg

CCN(CC)CC(=O)NC1c2ccccc2OCc2ncccc21 (stereo not drawn) [Compound 28, 5-[(N,N--diethylamino)acetyl]amino-5,11-dihydro[1]benzoxepino[3,4-b]pyridine]
inhibition in vivo at 100 mg/kg (Male Donryu-strain rats): 98%
Acute MLD ip (male dd-strain mice): > 100 mg/kg
Acute MLD po (male dd-strain mice): > 300 mg/kg

CCN(CC)CCCNC1c2ccccc2OCc2ncccc21 (stereo not drawn) [Compound 7, 5-[3-(Diethylamino)propyl]amino-5,11-dihydro[1]benzoxepino[3,4-b]pyridine]
inhibition in vivo at 30 mg/kg (Male Donryu-strain rats): 55%
Acute MLD ip (male dd-strain mice): > 100 mg/kg
Acute MLD po (male dd-strain mice): > 300 mg/kg

CCN(CC)CCNC1c2ccccc2OCc2ncccc21 (stereo not drawn) [Compound 1, 5-[2-(Diethylamino)ethyl]amino-5,11-dihydro[1]benzoxepino[3,4-b]pyridine]
inhibition in vivo at 30 mg/kg (Male Donryu-strain rats): 85%
Acute MLD ip (male dd-strain mice): > 100 mg/kg
Acute MLD po (male dd-strain mice): > 300 mg/kg

CNC(=O)N(C)C1c2ccccc2OCc2ncccc21 (stereo not drawn) [Compound 31, 1-(5,11-Dihydro[1]benzoxepino[3,4-b]pyridin-5-yl)1,3-dimethylurea]
inhibition in vivo at 100 mg/kg (Male Donryu-strain rats): 93%
Acute MLD ip (male dd-strain mice): > 100 mg/kg
Acute MLD po (male dd-strain mice): > 300 mg/kg

CCNC(=O)N(CC)C1c2ccccc2OCc2ncccc21 (stereo not drawn) [Compound 36, 1-(5,11-Dihydro[1]benzoxepino[3,4-b]pyridin-5-yl)1,3-diethylurea]
inhibition in vivo at 100 mg/kg (Male Donryu-strain rats): 81%
Acute MLD ip (male dd-strain mice): > 100 mg/kg
Acute MLD po (male dd-strain mice): > 300 mg/kg

CN1CCN(CC(=O)NC2c3ccccc3OCc3ncccc32)CC1 (stereo not drawn) [Compound 29, 5,11-Dihydro-5-[(4-methyl-1-piperazinyl)acetyl]amino[1]benzoxepino[3,4-b]pyridine]
inhibition in vivo at 100 mg/kg (Male Donryu-strain rats): 64%
Acute MLD ip (male dd-strain mice): > 100 mg/kg
Acute MLD po (male dd-strain mice): > 300 mg/kg

c1ccc2c(c1)OCc1ncccc1C2NCCN1CCOCC1 (stereo not drawn) [Compound 15, 5-[2-(Morpholino)ethyl]amino-5,11-dihydro[1]benzoxepino[3,4-b]pyridine]
inhibition in vivo at 30 mg/kg (Male Donryu-strain rats): 73%
Acute MLD ip (male dd-strain mice): > 100 mg/kg
Acute MLD po (male dd-strain mice): > 300 mg/kg

CN1CCN(C2c3ccccc3OCc3ncccc32)CC1 (stereo not drawn) [Compound 20, 5-[1-(4-Methyl)piperazinyl]-5,11-dihydro[1]benzoxepino[3,4-b]pyridine]
inhibition in vivo at 30 mg/kg (Male Donryu-strain rats): 67%
Acute MLD ip (male dd-strain mice): > 100 mg/kg
Acute MLD po (male dd-strain mice): > 300 mg/kg

CN(C)CCNC1c2ccccc2OCc2ncccc21 (stereo not drawn) [Compound 5, 5-[2-(Dimethylamino)ethyl]amino-5,11-dihydro[1]benzoxepino[3,4-b]pyridine]
inhibition in vivo at 30 mg/kg (Male Donryu-strain rats): 78%
Acute MLD ip (male dd-strain mice): > 100 mg/kg
Acute MLD po (male dd-strain mice): > 300 mg/kg
